As a reminder, the IC50 is the midpoint of a concentration-inhibition curve. For orientation: Kd means the constant that tells how readily two partners part at equilibrium. High values mean weaker binding, low ones tighter binding. The term koff denotes a measure of how fast the partners let go of each other. The kon is the second-order rate constant of association.

This is an account of results in US11401278B2, “Macrocyclic indole derivatives” (The Broad Institute, Inc., priority 2017, dated 2022).

One experiment deals with A2780. Briefly: Antiproliferation assay (Assay 7), A2780. It is filed as cell-based. The note with it: CellTiter-Glo, several values per example. How it is done: Assessment of the Anti-Proliferative Effect of Compounds in Different Cell Lines
The impact of compounds on the proliferation of different cell lines was assessed using the CellTiter-Glo® Luminescent Cell Viability reagent from Promega (G7573).
In parallel, cells were plated in a reference (day 0) plate for time zero determination.
Rim wells were excluded. The cells were incubated for 72 hours in a humidified incubator at 37° C. The day 0 plate was measured by adding 30 μL/well of CTG solution (CellTiter-Glo® Luminescent Cell Viability reagent, Promega G7573) to time zero wells in the reference plate followed by a 10 minutes incubation and luminescence reading at 0.1 ms. using the PHERAstar FS microplate reader (BMG Labtech).
After 72 hours incubation, the treated plates were measured in the same way as the day 0 plate mentioned above.
For orientation: In ATP-based viability assays light output follows the ATP content of the culture.

The target in a further experiment is MCL1 protein (Homo sapiens (Human), UniProt Q07820). Briefly: PIxEL: protein-protein interaction in permeabilized cells by ELISA (Assay 5). It is filed as cell-based. The note with it: permeabilized RKO cells, Biotin-BIM peptide 0.2 μM, serum free; median. How it is done:
PI×EL: Protein-Protein Interaction in Permeabilized Cells by ELISA
Most MCL1 protein molecules are localized at the mitochondria outer membrane and sequester pro-apoptotic proteins through binding of their BCL2 homology domain 3 (BH3 domain). MEB buffer (150 mM mannitol, 10 mM HEPES pH 7.5, 50 mM KCl, 20 μM EDTA, 20 μM EGTA, 5 mM potassium succinate, 0.1% protease-free BSA (SIGMA) with low dose digitonin (0.002%) permeabilizes plasma membrane while leaves live mitochondria, where MCL1 maintains its native localization and conformation. Unlike biophysical assays (e.g. TR-FRET) that use truncated recombinant MCL1 protein, this assay uses full length endogenous MCL1 protein at mitochondria outer membrane. It measures the interaction between MCL1 protein and biotinylated BIM BH3 peptide. Compounds can compete with BIM BH3 peptide to bind to MCL1 protein. This serum free assay measures the affinity between MCL1 protein and compound in permeabilized cells, therefore it is not affected by serum binding and cell permeability, and can measure the intrinsic compound affinity.
On day 1, RKO colon cancer cell line cells were plated at 0.8 million cells/ml, 100 μl/well in 96-well flat bottom TC plates (Corning). MCL1 antibody (Santa Cruz sc-12756) were diluted at 200 fold (final concentration 1 μg/ml) in carbonate buffer (Thermo Fisher Scientific, pH 9.6), and 50 μl of diluted antibody was added to each well of high bind ELISA plates (SARSTEDT). Each plate was tapped to make sure liquid covering entire bottom of wells and incubate at 37° C. overnight.
On the second day, MCL1 antibody was washed from ELISA plate. 250 μl Odyssey® Blocking Buffer (PBS) (Li-Cor) was added to each well, incubated at room temperature for at least 1 hour, then washed once with 250 μl 1×PBST. Plates with RKO cells were gently washed once with 100 μl/well PBS, once with 100 μl/well MEB buffer without digitonin, then 100 μl of MEB buffer with 0.002% digitonin was gently added to each well. Compounds were added with HP Tecan compound dispenser in 3-fold dilution series, highest dose 30 μM, 10-dose per compound in quadruplicates. Biotin-BIM peptide (synthesized by 21st Century) was added with HP Tecan compound dispenser at 0.2 μM immediately after the addition of compounds. Plates were rocked for 1 hour at room temperature. Then MEB buffer was aspirated and 50 μl of CHAPS buffer (50 mM Tris-Cl, pH 7.4, 150 mM NaCl, 1% CHAPS, 1 mM EDTA, 1 mM EGTA, cOmplete protease inhibitors (Roche), PhosSTOP (Roche)) was added to each well. Plates were rocked for 1 hour at 4° C., then 45 μl cell lysate from each well were transferred to ELISA plates coated with MCL1 antibody. Plates were incubated overnight in the cold room with rocking.
On the third day, ELISA plates were washed once with 250 μl 1×PBST. Streptavidin-poly-HRP (Thermo Fisher Scientific) was diluted to 20 ng/ml in Odyssey blocking buffer plus 0.05% Triton-100, and 100 μl was added to each well of the ELISA plate. Plates were incubated at room temperature for 1 hour with rocking, then washed with 100 μL 1×PBST for 3 times. Each SuperSignal ELISA Femto Maximum Sensitivity substrate was added to a 50-ml tube and mixed, then 100 μl of mixed substrate was added to each well. Plates were shaken for 1 minute then luminescence was measured by Envision plate reader […]. Signal of each well were normalized by no-compound control and no-cell control. IC50 was calculated using Graphic Pad PRISM software.

Another experiment deals with MCL-1 (Homo sapiens (Human), UniProt Q07820, K194A/K197A/R201A). Kind of experiment: Protein-compound interaction assay (SPR assay, Assay 8). It is filed as binding. The settings on record: immobilized MBP-MCL-1, 25° C., geometric mean. The text has this: Assay 8 Protein-Compound Interaction Assay (SPR Assay)
MCL-1, sequence (Q07820 whole entry K194A/K197A/R201A, looked up): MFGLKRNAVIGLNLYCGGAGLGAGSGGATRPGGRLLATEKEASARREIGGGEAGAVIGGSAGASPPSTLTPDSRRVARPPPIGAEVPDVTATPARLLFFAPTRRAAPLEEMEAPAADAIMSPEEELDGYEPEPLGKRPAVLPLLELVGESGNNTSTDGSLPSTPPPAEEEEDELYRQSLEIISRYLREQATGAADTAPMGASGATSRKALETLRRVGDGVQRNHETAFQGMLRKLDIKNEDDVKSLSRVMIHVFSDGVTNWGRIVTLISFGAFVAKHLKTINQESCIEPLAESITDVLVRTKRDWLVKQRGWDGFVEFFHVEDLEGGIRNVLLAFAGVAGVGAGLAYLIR
The ability of the compounds described in this invention to bind to MCL-1 may be determined using surface plasmon resonance (SPR). This allows for the quantification of binding in terms of the equilibrium dissociation constant (KD [M]), as well as association and dissociation rate constants (kon [1/M 1/s] and koff [1/s], respectively). The measurements may be performed using Biacore® T200 or Biacore® S200 instruments (GE Healthcare).
For SPR measurements, recombinant MCL-1 (amino acids 173-321, N-terminal fused to Maltose Binding Protein (MBP) (SEQ ID 1) purchased from Beryllium (Bedford, Mass., USA)) was immobilized using standard amine coupling (Johnsson B et al, Anal Biochem. 1991 Nov. 1; 198(2):268-77). Briefly, carboxymethylated dextran biosensor chips (Series S Sensor Chip CMS, GE Healthcare) were activated with 1-ethyl-3-(3-dimethylaminopropyl)-carbodiimide hydrochloride (EDC) and N-hydroxysuccinimide (NHS) according to the supplier's instructions. MBP-MCL-1 was diluted in 1×PBS-P+ (GE Healthcare) and injected on the activated chip surface. Subsequently, a solution of 1 M ethanolamine-HCl (GE Healthcare) was injected to block unreacted groups, resulting in approximately 400-2500 response units (RU) of immobilized protein. A reference surface was generated by treatment with NHS-EDC and ethanolamine-HCl. Compounds were dissolved in 100% dimethylsulfoxide (DMSO) to a concentration of 10 mM and subsequently diluted in running buffer (1×PBS-P+ (GE Healthcare) [generated from PBS-P+ Buffer 10× (GE Healthcare): 0.2 M phosphate buffer with 27 mM KCl, 1.37 M NaCl and 0.5% Surfactant P20 (Tween 20).], 1% v/v DMSO). For SPR binding-measurements, serial dilutions of compound (eight dilution steps, typically ranging from 0.2 nM up to 1 μM) were injected over immobilized protein. […] Compounds were injected for 60 s followed by a dissociation time of up to 1000 s.
The double-referenced sensorgrams were fit to a simple reversible Langmuir 1:1 reaction mechanism as implemented in the Biacore® T200 and S200 evaluation software (T200 evaluation software version 2.0 and S200 evaluation software version 1.0, GE Healthcare).
A general note: Surface plasmon resonance follows binding to a sensor surface in real time, without labels.

[1] abbreviates: Homo sapiens, A2780, 72 h, read-out: Antiproli A2780 [M] IC50.

Where “and” joins values, the source holds several entries; their conditions need not be identical. Equal entries are not always repeated. Structures can show the parent of a compound that is named as a salt. Where two headings read alike, the source gives them in different places.

MCL1 protein, sequence (Q07820 whole entry): as the sequence (Q07820 whole entry K194A/K197A/R201A, looked up) above, with A194K, A197K, A201R counted along it

Consider `Cc1c2c(nn1C)CN(C)S(=O)(=O)CCCn1c(C(=O)O)c(CCCOc3cccc4ccccc34)c3ccc(Cl)c-2c31` (single isomer, unassigned; enantiomer 2) [Example 6, 4-Chloro-2,3,14-trimethyl-7-{3-[(naphthalen-1-yl)oxy]propyl}-13,13-dioxo-10,11,12,13,14,15-hexahydro-2H-13λ^6-pyrazolo[3′,4′:4,5][1,2,8]thiadiazacycloundecino[6,7,8-hi]indole-8-carboxylic acid-N-ethylethanamine salt (Enantiomer 2)], for which the half-maximal inhibitory concentration (IC50) with A2780 (72 hours, listed as 06, read-out: Antiproli A2780 [M] IC50) amounted to 1.19e-05 M.

As to `Cc1c2c(nn1C)CN(CCN1CCOCC1)S(=O)(=O)CCCn1c(C(=O)O)c(CCCOc3cccc4ccccc34)c3cccc-2c31` (single isomer, unassigned; enantiomer 2) [Example 3, 2,3-Dimethyl-14-[2-(morpholin-4-yl)ethyl]-7-{3-[(naphthalen-1-yl)oxy]propyl}-13,13-dioxo-10,11,12,13,14,15-hexahydro-2H-13λ^6-pyrazolo[3′,4′:4,5][1,2,8]thiadiazacycloundecino-[6,7,8-hi]indole-8-carboxylic acid-N-ethylethanamine salt (Enantiomer 2)], in the experiment on A2780 (72 hours, listed as 03, read-out: Antiproli A2780 [M] IC50), the IC50 turned out to be 2.11e-05 M.

Turning to `Cc1c2c(nn1C)CN(C)S(=O)(=O)CCCn1c(C(=O)O)c(CCCOc3cccc4ccccc34)c3ccc(Cl)c-2c31` (racemic) [Example 4, (rac)-4-Chloro-2,3,14-trimethyl-7-{3-[(naphthalen-1-yl)oxy]propyl}-13,13-dioxo-10,11,12,13,14,15-hexahydro-2H-13λ^6-pyrazolo[3′,4′:4,5][1,2,8]thiadiazacycloundecino-[6,7,8-hi]indole-8-carboxylic acid], the IC50 came to 1.66e-05 M with A2780 (72 hours, listed as 04, read-out: Antiproli A2780 [M] IC50) and 1.22e-05 M with A2780 (setting [1]).

With `Cc1c2c(nn1C)CN(C)S(=O)(=O)CCCn1c(C(=O)O)c(CCCOc3cccc4ccccc34)c3ccc(Cl)c-2c31` (single isomer, unassigned; enantiomer 1) [Example 5, 4-Chloro-2,3,14-trimethyl-7-{3-[(naphthalen-1-yl)oxy]propyl}-13,13-dioxo-10,11,12,13,14,15-hexahydro-2H-13λ^6-pyrazolo[3′,4′:4,5][1,2,8]thiadiazacycloundecino[6,7,8-hi]indole-8-carboxylic acid-N-ethylethanamine salt (Enantiomer 1)], the IC50 against MCL1 protein is 0.57 µM; in the experiment with A2780 (72 hours, listed as 05, read-out: Antiproli A2780 [M] IC50), 9.33e-06 M and 1.13e-05 M. Also, on MCL-1, binding was characterised by a dissociation constant (Kd) of 0.0024 µM. Also, the koff at MCL-1 (read-out: koff) was determined as 0.0079 s⁻¹. The kon at MCL-1 (read-out: kon) worked out at 3.2e+06 M⁻¹ s⁻¹.

As to `Cc1c2c(nn1C)CN(CCN1CCOCC1)S(=O)(=O)CCCn1c(C(=O)O)c(CCCOc3cccc4ccccc34)c3cccc-2c31` (racemic) [Example 1, (rac)-2,3-Dimethyl-14-[2-(morpholin-4-yl)ethyl]-7-{3-[(naphthalen-1-yl)oxy]propyl}-13,13-dioxo-10,11,12,13,14,15-hexahydro-2H-13λ^6-pyrazolo[3′,4′:4,5][1,2,8]thiadiazacycloundecino-[6,7,8-hi]indole-8-carboxylic acid], the IC50 was over 3.3e-05 M in the experiment with A2780 (72 hours, listed as 01, read-out: Antiproli A2780 [M] IC50) and 3.21e-05 M with A2780 (setting [1]).
